ChEMBL document CHEMBL1132863, “Antioxidant function of phenethyl-5-bromo-pyridyl thiourea compounds with potent anti-HIV activity” (Bioorg Med Chem Lett, 2000)

Columns and labels:
[1] = Antioxidant activity was evaluated by measuring the inhibition of oxidation of ABTS to ABTS+ by metmyoglobin in the presence of H2O2.; format: functional
[2] = molecular target: Human immunodeficiency virus type 1 reverse transcriptase (Human immunodeficiency virus 1, UniProt Q72547); experiment: Inhibition of recombinant HIV-1 reverse transcriptase
CCRF-CEM = experiment: The compound was evaluated for percent reduction of H2O2-induced H2DCFDA fluorescence in human CEM T-cells.; format: functional; parameters: concentration or dose not given beside the values
NALM-6 = experiment: The compound was evaluated for percent reduction of H2O2-induced H2DCFDA fluorescence in NALM-6-B-cells.; format: functional, Homo sapiens; parameters: concentration or dose not given beside the values

EC50 [1] [µM] | IC50 [2] [µM] | Molecule | Reduction (CCRF-CEM) [%] | Reduction (NALM-6) [%]
> 1000 | > 100 | CS/C(=N\CCc1ccccc1Cl)Nc1ccc(Br)cn1 | – | –
176 | 0.9 | COc1ccc(CC/N=C(\S)Nc2ccc(Br)cn2)cc1 | 21.4 | 0
> 1000 | > 100 | Clc1ccccc1CC/N=C(/Nc1ccc(Br)cn1)SCc1ccccc1 | – | –
90 | 0.4 | COc1cccc(CC/N=C(\S)Nc2ccc(Br)cn2)c1 | 19.7 | 30.4
> 1000 | > 100 | COc1ccc(OC)c(CC/N=C(/Nc2ccc(Br)cn2)SCc2ccccc2)c1 | – | –
> 1000 | > 100 | Fc1ccccc1CC/N=C(/Nc1ccc(Br)cn1)SCc1ccccc1 | – | –
89 | – | COc1ccc(OC)c(CCNC(=S)Nc2ccc(Br)cn2)c1 | 29.4 | 11.8
89 | – | Fc1ccc(CC/N=C(\S)Nc2ccc(Br)cn2)cc1 | 13 | 2
109 | – | Fc1ccccc1CC/N=C(\S)Nc1ccc(Br)cn1 | 47 | –
98 | 1.3 | S=C(NCCc1ccccc1)Nc1ccc(Br)cn1 | 32.1 | 37.1
79 | 1 | COc1ccccc1CC/N=C(\S)Nc1ccc(Br)cn1 | 72.3 | 94.2
100 | – | Fc1cccc(CC/N=C(\S)Nc2ccc(Br)cn2)c1 | 45 | –
75 | – | S=C(NCCc1ccccc1Cl)Nc1ccc(Br)cn1 | 56.3 | 32
84 | – | CCCOC(=O)c1cc(O)c(O)c(O)c1 [PROPYL GALLATE] | – | –
> 1000 | > 100 | Cc1cn([C@H]2C[C@H](N=[N+]=[N-])[C@@H](CO)O2)c(=O)[nH]c1=O [ZIDOVUDINE] | – | –
377 | – | VITAMIN E | – | –
